The values that follow come from patent publication US20250049787A1, “TREATMENT FOR ACUTE MYELOID LEUKEMIA OR LYMPHOMA” (UNIVERSITY HEALTH NETWORK, priority 2021, published 2025).

The subject of one data set is c-KIT (CD117). Put plainly: Flow cytometry, cell surface c-KIT in primary human AML cells. The format is cell-based. The conditions noted are these: FLT3-ITD positive primary AML cells, viable CD14− blasts, 48 and 72 hours, dose-dependent. The method, then:
Patient samples were obtained from Dr. Mark Minden (Princess Margaret Cancer Centre, Toronto, Ontario, Canada). FLT3-ITD positive AML cells were treated with the indicated concentrations of Compound (I) for 48 and 72 hours at 37° C. and 5% CO2 and stained with APC-CD45, PECy7-CD38, APC/Fire 750-CD33, PerCP-CD14, PE-FLT3 (Beckman Coulter, Cat. IM2234U), PE/Dazzle 594-CD117 (BioLegend, Cat. #313226) or isotype control antibodies and analyzed on a BD LSRFortessa II flow cytometry analyzer. Data were analyzed using FlowJo software and representative data are shown. Compound (I) treatment increases the cell surface expression of FLT3 and c-KIT in a dose-dependent manner in viable CD14^− AML blast cells. Similar results were obtained in additional FLT3-ITD positive primary AML samples (data not shown).

The next data set concerns cell surface FLT3-ITD. In words: Flow cytometry, cell surface FLT3-ITD in MV-4-11 cells. The format is cell-based, human. The conditions noted are these: 100 nM, 4 hours. How it is done:
MV-4-11 cells were treated with 100 nM Compound (I) tartrate or DMSO control for 4 hours at 37° C. and 5% CO2 and stained with PE-FLT3 (Beckman Coulter, Cat. IM2234U) or an isotype control antibody and analyzed on a BD LSRFortessa II flow cytometry analyzer. Data were analyzed using FlowJo software and representative data are shown. […] Compound (I) tartrate treatment increases the cell surface expression of FLT3-ITD in MV-4-11 cells.
In general terms: Flow cytometry measures light scatter and fluorescence of single cells or particles in a stream.

Another data set relates to THP-1. Put plainly: Growth inhibition, Alamar Blue. It counts as cell-based. As to conditions: Homo sapiens, 72 h; THP-1, AML M5; FLT3 wild-type, protein expressed; 3 days. The method, then:
(§1) Cell lines were obtained from American Type Culture Collection (ATCC) and maintained according to the supplier's instructions, and from Dr. Mark Minden (Princess Margaret Cancer Centre, Toronto, Canada). Short tandem repeat (STR) profiling was used to verify authenticity of the cell lines. Peripheral blood from healthy human donors was obtained from the Hematology Malignancy Tissue Bank at the University Health Network. Peripheral blood mononuclear cells (PBMC) were prepared from the blood by density gradient centrifugation using Ficoll-Paque PLUS by manufacturer's instructions (GE Healthcare Life Sciences). […] Compound (I) tartrate was prepared as a 10 mM stock solution in 100% DMSO. The stock solution was diluted with RPMI-1640 (Invitrogen) containing 10% FBS (fetal bovine serum) such that the final concentrations ranged from 300 fM to 300 μM. Aliquots (20 μL) from each concentration were overlaid to 180 μL of pre-seeded cells to achieve final concentrations of 30 fM to 30 μM. After 3 days, cell growth in each well was assessed by Alamar Blue assay reagent (Invitrogen). Raw fluorescence (λEM=590 nm) values were adjusted by subtracting the average of the baseline readings from untreated cells assessed one day after cell seeding. Relative cell growth was calculated by comparing to DMSO-treated cells. The concentrations at which cell growth was inhibited by 50% (growth inhibition IC50) were calculated using GraphPad PRISM software (GraphPad Software Inc.).

The test system of another data set is RAJI. In words: Growth inhibition, Alamar Blue. It counts as cell-based. The conditions noted are these: Homo sapiens, 72 h, NHL, Burkitt's lymphoma, 3 days. How it is done: as §1
The test system of a further data set is SU-DHL-8. In words: Growth inhibition, Alamar Blue. As to conditions: Homo sapiens, 72 h; SU-DHL-8, NHL, GCB-DLBCL; 3 days. It counts as cell-based. The method, then: as §1
For another data set, the system named is MV-4-11. Put plainly: Growth inhibition, Alamar Blue. As to conditions: Homo sapiens, MV4-11, 72 h; MV-4-11, AML M5; FLT3 ITD, protein expressed; 3 days. The format is cell-based. The method, then: as §1
In the next data set the test system is MV-4-11 xenografts. In words: MV-4-11 xenograft model of human AML in CD-1 Nude mice. The format is in vivo. The conditions noted are these: for tumor status after 10 days of treatment: established MV-4-11 xenografts. How it is done: Female 8- to 10-week-old CD-1 Nude mice (Charles River Laboratories) with established MV-4-11 xenografts were treated for 21 days (n=8). MV-4-11 cells is a human AML cell line which endogenously expresses a Fms Related Receptor Tyrosine Kinase 3 (FLT3) internal tandem duplication (ITD) mutation. Animal weights were monitored daily, and tumor volume was measured three times per week. Tumor volume (mm^3) was defined as follows, length×width^2/2. Percentage tumor growth inhibition (% TGI) was defined as follows, 100×[1−(TVf,treated−TVi,treated)/(TVf,control−TVi,control)], where TVf is the average tumor volume at the end of study, and TVi is the average tumor volume at the initiation of treatment. In cases where tumor regression occurred, percentage tumor regression was defined as follows, 100×[1−(TVf,treated/TVi,treated)]. At the completion of the study, the mice were sacrificed by an anesthetic overdose. The Institutional Animal Care and Use Committee of the University Health Network approved all animal procedures. […] Data are represented as mean±SEM. p values were calculated using Student's/test.
On the technique in general: In xenograft studies the graft and the host belong to different species.

The next data set concerns the target T1, FLT3 (Homo sapiens, UniProt P36888).
T1 construct: purchased Reaction Biology Corp. (Malvern, PA, USA)
In words: Radiometric HotSpot kinase assay, FLT3. The format is biochemical. As to conditions: ATP 50 μM; peptide substrate 5 μM. How it is done: (§2) Kinase IC50 values were determined by Reaction Biology Corp. (Malvern, PA, USA) in the Radiometric HotSpot™ Assay using recombinantly expressed kinase enzymes. Compound (I) was tested in a 10-dose IC50 curve in duplicate. Enzymes were tested at the Km [ATP] for each enzyme using the Reaction Biology binning structure. Kinase reactions were initiated by the addition of protein or peptide substrate and [γ-^33P]-adenosine triphosphate (ATP). Phosphorylated substrates were captured by spotting of the reaction mix on filter membranes, and enzymatic activity was quantified by liquid scintillation counting. Substrates and ATP concentrations are as follows: • FLT3: Peptide substrate, [EAIYAAPFAKKK], 5 μM: ATP 50 μM • FLT3-ITD (internal tandem duplication): Peptide substrate, [EAIYAAPFAKKK], 20 μM: ATP, 30 μM • FLT3 (D835Y): Peptide substrate, [EAIYAAPFAKKK], 5 μM: ATP 20 μM • TAK1: Casein, 1 mg/mL: ATP, 20 μM

A further data set has as its system FLT3-ITD maturation. In words: FLT3-ITD maturation in MOLM-14 cells. The format is cell-based, human. The conditions noted are these: MOLM-14 cells (co-express FLT3-ITD and wild-type FLT3); data not shown.
For data set [1], the target named is FLT3-ITD (internal tandem duplication) (Homo sapiens, UniProt P36888). In words: Radiometric HotSpot kinase assay, FLT3-ITD. It counts as biochemical. As to conditions: ATP 30 μM; peptide substrate 20 μM. The method, then: as §2

pIC50: −log10 of the molar value. Where a name gives a salt, the structure may show the parent alone.

T1 sequence (P36888 27-993): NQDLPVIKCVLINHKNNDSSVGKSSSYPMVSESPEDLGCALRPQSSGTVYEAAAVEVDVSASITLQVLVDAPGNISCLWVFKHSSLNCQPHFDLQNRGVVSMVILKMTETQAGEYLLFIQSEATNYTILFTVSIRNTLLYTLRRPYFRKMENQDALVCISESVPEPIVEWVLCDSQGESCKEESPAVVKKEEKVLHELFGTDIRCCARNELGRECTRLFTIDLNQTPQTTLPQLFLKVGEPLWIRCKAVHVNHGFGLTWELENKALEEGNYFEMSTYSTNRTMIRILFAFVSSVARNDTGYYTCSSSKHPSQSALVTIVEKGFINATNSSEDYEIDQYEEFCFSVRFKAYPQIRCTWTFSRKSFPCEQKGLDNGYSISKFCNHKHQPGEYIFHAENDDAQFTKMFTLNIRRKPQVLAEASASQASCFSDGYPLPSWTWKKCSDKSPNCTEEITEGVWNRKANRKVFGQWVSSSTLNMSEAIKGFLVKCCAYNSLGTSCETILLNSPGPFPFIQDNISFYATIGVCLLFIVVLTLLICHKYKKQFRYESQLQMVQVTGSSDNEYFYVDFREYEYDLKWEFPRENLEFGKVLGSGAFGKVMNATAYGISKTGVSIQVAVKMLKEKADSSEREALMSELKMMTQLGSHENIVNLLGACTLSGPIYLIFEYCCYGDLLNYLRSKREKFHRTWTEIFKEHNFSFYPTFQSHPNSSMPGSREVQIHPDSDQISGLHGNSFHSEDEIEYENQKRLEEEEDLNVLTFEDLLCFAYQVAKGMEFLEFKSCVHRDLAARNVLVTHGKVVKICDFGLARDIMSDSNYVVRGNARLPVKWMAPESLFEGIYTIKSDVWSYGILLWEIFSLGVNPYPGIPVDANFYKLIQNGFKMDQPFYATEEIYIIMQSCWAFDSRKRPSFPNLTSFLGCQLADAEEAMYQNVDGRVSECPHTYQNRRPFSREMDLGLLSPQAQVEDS

As to `CN1CCN(c2ccc3nc(-c4c(N)c5ccsc5[nH]c4=O)[nH]c3c2)CC1` [Compound (I) tartrate, 4-amino-5-(6-(4-methylpiperazin-1-yl)-1H-benzo[d]imidazol-2-yl)thieno[2,3-b]pyridin-6(7H)-one], the “cell surface expression of c-KIT (CD117)” value in the data set with c-KIT (CD117) is listed as “increases”. Further, the “cell surface expression of FLT3-ITD” value in the data set with cell surface FLT3-ITD is reported as “increases”. Moreover, the pIC50 in the data set on THP-1 was 5.89; in the data set with RAJI, 5.18; in the data set with SU-DHL-8, 5.59; with MV-4-11 it was 8.43; against FLT3 it was 10.37; in data set [1] it was 9.89. In addition, the “tumor status after 10 days of treatment” value in the data set on MV-4-11 xenografts (50 mg/kg orally QD) and in the data set with MV-4-11 xenografts (150 mg/kg orally QD) was “tumors were undetectable” throughout. For the same compound, the “effect on large tumors after 7 days of treatment” value in the data set with MV-4-11 xenografts (50 mg/kg, large tumors (≅900 mm^3)) was “complete tumor regression”. Besides, in the data set with MV-4-11 xenografts (CD-1 Nude mice, 21 days treatment), the “tolerability (body weight and behavior)” value is recorded as “well tolerated”. Also, the FLT3-ITD maturation entry in the data set with FLT3-ITD maturation is “increase”.

Broadly, the pIC50 is the negative decadic logarithm of the IC50, by convention in mol/L. Higher therefore signals a small IC50.
